Measurements reported in PMC6178619, “Arylvinylpiperazine Amides, a New Class of Potent Inhibitors Targeting QcrB of Mycobacterium tuberculosis” (mBio, 2018).
≈ marks a conversion by molar mass, not a printed value. Where two headings read alike, the source gives them in different places.

Assays:
[1] = test system: M. tuberculosis H37Rv ΔcydAB; format: cell-based; settings: ΔcydAB strain; AX-35 14 µM, Q203 0.3 µM (100× MIC50)
M. tuberculosis H37Rv [2] = format: cell-based; settings: AX-35 14 µM, Q203 0.3 µM (100× MIC50), glucose
[3] = test system: M. tuberculosis H37Rv-infected THP-1 macrophages; assay: microbe, parasite or virus in culture; format: cell-based; settings: Mycobacterium tuberculosis, THP-1, 48 h, read-out: Antimycobacterial activity against M. tuberculosis H37Rv, ex vivo in THP-1 macrophages (IC50)
M. tuberculosis H37Rv [4] = assay: MIC by resazurin reduction microplate assay (REMA); format: cell-based, Mycobacterium tuberculosis
HepG2 cells = format: cell-based, human
Protocol: Human HepG2 cells (4,000 cells/well) were incubated for 3 days with 2-fold serially diluted compounds at 37°C under an atmosphere of 5% CO2. Cell viability was determined by the addition of resazurin (0.0025% wt/vol) for 4 h at 37°C, and the fluorescence intensity was measured as in REMA.

in vitro = assay: in vitro
Protocol: Metabolic stability of the compounds was measured based on intrinsic clearance (Clint) in mouse and human liver microsomes as previously described ([42]). The final compound concentration in the mixture of microsomes and NADPH regeneration system was 2 µg/ml, and a mixture without NADPH regeneration was also prepared for each compound as a control of the stability of the compound with time.

M. tuberculosis H37Rv [5] = assay: Acute mouse model of TB; format: in vivo, mouse (BALB/c); settings: for Reduction of bacterial load in mouse lungs vs TPGS vehicle control: once daily for 10 days
Staphylococcus aureus = assay: MIC by REMA; format: cell-based
Bacillus subtilis = assay: MIC by REMA; format: cell-based
Mycobacterium ulcerans = assay: MIC by REMA; format: cell-based
M. tuberculosis H37Rv [6] = settings: cited from earlier work
[7] = test system: Corynebacterium glutamicum; assay: MIC by REMA; format: cell-based
Micrococcus luteus = assay: MIC by REMA; format: cell-based
Candida albicans = assay: MIC by REMA; format: cell-based
Mycobacterium marinum = assay: MIC by REMA; format: cell-based
Enterococcus faecalis = assay: MIC by REMA; format: cell-based
Mycobacterium smegmatis = assay: MIC by REMA; format: cell-based; settings: Mycolicibacterium smegmatis
Mycobacterium avium = assay: MIC by REMA; format: cell-based
M. tuberculosis H37Rv [8] = format: cell-based; settings: up to a concentration 32-fold higher than the MIC, 7 days
[9] = test system: Corynebacterium diphtheriae; assay: MIC by REMA; format: cell-based
Listeria monocytogenes = assay: MIC by REMA; format: cell-based
M. bovis BCG = settings: cited from earlier work
Escherichia coli = assay: MIC by REMA; format: cell-based
[10] = test system: Mycobacterium massiliense; assay: MIC by REMA; format: cell-based; settings: Mycobacteroides abscessus
Mycobacterium vaccae = assay: MIC by REMA; format: cell-based; settings: Mycolicibacterium vaccae
Mycobacterium bovis BCG = assay: microbe, parasite or virus in culture; format: cell-based; settings: Mycobacterium tuberculosis variant bovis BCG
Pseudomonas putida = assay: MIC by REMA; format: cell-based
[11] = test system: Mycobacterium canettii STB-L; assay: MIC by REMA; format: cell-based; settings: Mycobacterium canetti
[12] = test system: Salmonella enterica serovar Typhimurium; assay: MIC by REMA; format: cell-based
Pseudomonas aeruginosa = assay: MIC by REMA; format: cell-based
wild-type H37Rv = format: cell-based, Mycobacterium tuberculosis; settings: 2.5× MIC, 24 h exposure
[13] = test system: H37Rv ΔcydAB::cydAB complemented strain; format: cell-based
[14] = Mycobacterium tuberculosis, H37RV, 144 h; read-out: Antimycobacterial activity against M. tuberculosis H37Rv, in vitro (MIC)
[15] = H37RV; Mycobacterium tuberculosis (Table 2 panel); read-out: MIC
[16] = Mycobacterium canettii STB-L, read-out: MIC

Structure (SMILES)	IC50 [3] [µg/mL]	MIC (M. tuberculosis H37Rv [4]; [14]) [µg/mL]	Cytotoxicity in HepG2 cells (TD50) (HepG2 cells; 3 days incubation) [µg/mL]	Clearance Category (in vitro; human, microsomes)	microsomal CLint at 2 µg/ml (in vitro; human, microsomes) [µL/min/mg]	Clearance Category (in vitro; mouse, microsomes)	microsomal CLint at 2 µg/ml (in vitro; mouse, microsomes) [µL/min/mg]	MIC (Staphylococcus aureus) [µg/mL]	MIC (Bacillus subtilis) [µg/mL]	MIC (Mycobacterium ulcerans) [µg/mL]	MIC [7] [µg/mL]	MIC (Micrococcus luteus) [µg/mL]	MIC (Candida albicans) [µg/mL]	MIC (Mycobacterium marinum) [µg/mL]	MIC (Enterococcus faecalis) [µg/mL]	MIC (Mycobacterium smegmatis) [µg/mL]	MIC (Mycobacterium avium) [µg/mL]	MIC [9] [µg/mL]	MIC (Listeria monocytogenes) [µg/mL]	MIC (Escherichia coli) [µg/mL]	further results
CCc1nc2ccc(Cl)cn2c1C(=O)NCc1ccc(N2CCC(c3ccc(OC(F)(F)F)cc3)CC2)cc1 [Compound Q203, reference compound]	–	–	–	–	–	–	–	–	–	–	–	–	–	–	–	–	–	–	–	–	Increase in OCR on compound addition [1]: no longer observed; Oxygen consumption rate (OCR) change from basal on compound addition (M. tuberculosis H37Rv [2]): increase
O=C(/C=C/c1ccccc1)N1CCN(Cc2ccc3c(c2)OCO3)CC1 [AX-38, (E)-1-(4-(Benzo[d][1,3]dioxol-5-ylmethyl)piperazin-1-yl)-3-phenylprop-2-en-1-one]	0.3 (≈ 0.856 µM)	0.2 (≈ 0.571 µM)	37.5	medium	13.3	high	63.8	–	–	–	–	–	–	–	–	–	–	–	–	–	–
O=C(/C=C/c1cscn1)N1CCN(Cc2ccc3c(c2)OCO3)CC1 [AX-37, (E)-1-(4-(Benzo[d][1,3]dioxol-5-ylmethyl)piperazin-1-yl)-3-(1λ^3,3λ^2-thiazol-4-yl)prop-2-en-1-one]	0.2 (≈ 0.56 µM)	0.1 (≈ 0.28 µM)	25	–	–	–	–	–	–	–	–	–	–	–	–	–	–	–	–	–	Reduction of bacterial load in mouse lungs vs TPGS vehicle control (M. tuberculosis H37Rv [5]; oral 100 mg/kg): 0.6 log10
NNC(=O)c1ccncc1 [INH, isoniazid, reference compound]	–	–	–	–	–	–	–	–	–	–	–	–	–	–	–	–	–	–	–	–	log10 CFU per lung (M. tuberculosis H37Rv [5]; 25 mg/kg oral, Day 10): below l.o.d.
NC(=O)N1c2ccccc2C=Cc2ccccc21 [Carbamazepine, reference compound]	–	–	–	–	–	–	–	–	–	–	–	–	–	–	–	–	–	–	–	–	Clearance Category (in vitro; human microsomes, compound 2 µg/ml): low; Clearance Category (in vitro; mouse microsomes, compound 2 µg/ml): low
O=C(/C=C/c1cccs1)N1CCN(Cc2ccc3c(c2)OCO3)CC1 [AX-35, (E)-1-(4-(Benzo[d][1,3]dioxol-5-ylmethyl)piperazin-1-yl)-3-(thiophen-2-yl)prop-2-en-1-one]	0.1 (≈ 0.281 µM)	0.05 (≈ 0.14 µM)	50	medium	21.7	high	120	> 100	> 100	1.6 (≈ 4.49 µM)	> 100	> 100	> 100	11.5 (≈ 32.3 µM)	> 100	100 (≈ 281 µM)	8.2 (≈ 23 µM)	> 100	> 100	74 (≈ 208 µM)	Increase in OCR on compound addition [1]: no longer observed; Antimycobacterial activity against M. tuberculosis H37Rv, in vitro (MIC) (M. tuberculosis H37Rv [4]): 0.05 µg/mL; MIC (M. tuberculosis H37Rv [4]; [15]): 0.05 µg/mL (≈ 0.14 µM); MIC (M. tuberculosis H37Rv [6]): 0.3 µM (≈ 0.107 µg/mL); Mode of action (MBC, 99.9% killed) (M. tuberculosis H37Rv [8]): bacteriostatic; Oxygen consumption rate (OCR) change from basal on compound addition (M. tuberculosis H37Rv [2]): increase; MIC (M. bovis BCG): 0.3 µM (≈ 0.107 µg/mL); Reduction of bacterial load in mouse lungs vs TPGS vehicle control (M. tuberculosis H37Rv [5]; oral 200 mg/kg): 0.4 log10; MIC [10]: 7.7 µg/mL (≈ 21.6 µM); MIC (Mycobacterium vaccae): 12.1 µg/mL (≈ 33.9 µM); MIC (Mycobacterium bovis BCG): 0.8 µg/mL (≈ 2.24 µM); MIC (Pseudomonas putida): > 100 µg/mL; MIC [11, 16]: 0.003 µg/mL (≈ 0.00842 µM); MIC [12]: > 100 µg/mL; MIC (Pseudomonas aeruginosa): > 100 µg/mL; Intracellular ATP level, lower than untreated control (wild-type H37Rv): ~90%; Outcome of AX-35 treatment in complemented strain [13]: survival of the bacteria
CO[C@H]1/C=C/O[C@@]2(C)Oc3c(C)c(O)c4c(O)c(c(/C=N/N5CCN(C)CC5)c(O)c4c3C2=O)NC(=O)/C(C)=C\C=C\[C@H](C)[C@H](O)[C@@H](C)[C@@H](O)[C@@H](C)[C@H](OC(C)=O)[C@@H]1C [Rifampin, rifampin, reference compound]	0.1 (≈ 0.122 µM)	–	–	–	–	–	–	3.8 (≈ 4.62 µM)	0.3 (≈ 0.365 µM)	0.01 (≈ 0.0122 µM)	0.004 (≈ 0.00486 µM)	0.7 (≈ 0.851 µM)	1.5 (≈ 1.82 µM)	0.5 (≈ 0.608 µM)	0.6 (≈ 0.729 µM)	1.7 (≈ 2.07 µM)	25 (≈ 30.4 µM)	0.0004 (≈ 0.000486 µM)	0.8 (≈ 0.972 µM)	6.7 (≈ 8.14 µM)	MIC (M. tuberculosis H37Rv [4]; Mycobacterium tuberculosis, H37RV): 0.001 µg/mL (≈ 0.00122 µM); MIC (M. tuberculosis H37Rv [4]; Mycobacterium tuberculosis, H37RV, 144 h, read-out: Antimycobacterial activity against M. tuberculosis H37Rv, in vitro (MIC)): 0.0008 µg/mL (≈ 0.000972 µM); MIC [10]: 26.9 µg/mL (≈ 32.7 µM); Cytotoxicity in HepG2 cells (TD50) (HepG2 cells; human): 75 µg/mL; MIC (Mycobacterium vaccae): 2.5 µg/mL (≈ 3.04 µM); MIC (Mycobacterium bovis BCG): 0.0008 µg/mL (≈ 0.000972 µM); MIC (Pseudomonas putida): 0.2 µg/mL (≈ 0.243 µM); MIC [11]: 0.002 µg/mL (≈ 0.00243 µM); MIC [12]: 0.7 µg/mL (≈ 0.851 µM); MIC (Pseudomonas aeruginosa): 1 µg/mL (≈ 1.22 µM)
O=C(/C=C/c1nccs1)N1CCN(Cc2ccc3c(c2)OCO3)CC1 [AX-39, (E)-1-(4-(Benzo[d][1,3]dioxol-5-ylmethyl)piperazin-1-yl)-3-(thiazol-2-yl)prop-2-en-1-one]	1.8 (≈ 5.04 µM)	0.3 (≈ 0.839 µM)	75	–	–	–	–	–	–	–	–	–	–	–	–	–	–	–	–	–	Reduction of bacterial load in mouse lungs vs TPGS vehicle control (M. tuberculosis H37Rv [5]; oral 100 mg/kg): 0.9 log10
O=C(/C=C/c1ccsc1)N1CCN(Cc2ccc3c(c2)OCO3)CC1 [AX-36, (E)-1-(4-(Benzo[d][1,3]dioxol-5-ylmethyl)piperazin-1-yl)-3-(thiophen-3-yl)prop-2-en-1-one]	0.3 (≈ 0.842 µM)	0.1 (≈ 0.281 µM)	37.5	medium	16.8	high	117	> 100	> 100	1.6 (≈ 4.49 µM)	> 100	> 100	> 100	19.6 (≈ 55 µM)	> 100	63 (≈ 177 µM)	12.8 (≈ 35.9 µM)	> 100	> 100	100 (≈ 281 µM)	MIC (M. tuberculosis H37Rv [4]; [15]): 0.1 µg/mL (≈ 0.281 µM); MIC [10]: 10.4 µg/mL (≈ 29.2 µM); MIC (Mycobacterium vaccae): 26.9 µg/mL (≈ 75.5 µM); MIC (Mycobacterium bovis BCG): 0.8 µg/mL (≈ 2.24 µM); MIC (Pseudomonas putida): > 100 µg/mL; MIC [11, 16]: 0.01 µg/mL (≈ 0.0281 µM); MIC [12]: > 100 µg/mL; MIC (Pseudomonas aeruginosa): > 100 µg/mL; Intracellular ATP level, lower than untreated control (wild-type H37Rv): ~90%
